Experimental data as given in ChEMBL document CHEMBL1141145, “A chiral benzoquinolizine-2-carboxylic acid arginine salt active against vancomycin-resistant Staphylococcus aureus” (J Med Chem, 2005).
In brackets after ≈: the same amount, converted by molar mass.

Columns and labels:
[1] = target: DNA topoisomerase 4 subunit A (Staphylococcus aureus) (UniProt P0C1U9)
Description: Stimulation of DNA cleavage complex formation of topoisomerase IV from Staphylococcus aureus ISP 794

[2] = target: DNA gyrase (Staphylococcus aureus) (UniProt P0A0K8+P20831)
Description: Stimulation of DNA cleavage complex formation in DNA gyrase from Staphylococcus aureus ISP 794

Staphylococcus aureus [3] = assay: Minimum inhibitory concentration against methicillin susceptible Staphylococcus aureus; format: functional; conditions: Staphylococcus aureus; read-out: MIC
Mus musculus [4] = assay: Protection of mice infected with MRSA-32 cell suspension after oral administration of compound; format: functional; conditions: Mus musculus, MRSA-32, po; read-out: ED50
Rattus norvegicus = assay: Amount of drug at which at 14 days of daily administration produced no venous blockage or phlebitis in rats; format: functional
Staphylococcus aureus [5] = assay: Minimum inhibitory concentration against vancomycin intermediate Staphylococcus aureus MU 3; format: functional
Staphylococcus aureus [6] = assay: Minimum inhibitory concentration against Vancomycin intermediate Staphylococcus aureus MU 50; format: functional
Staphylococcus aureus [7] = assay: Minimum inhibitory concentration against vancomycin-resistant Staphylococcus aureus (Hershey); format: functional
Mus musculus [8] = assay: Efficacy against mice infected with Staphylococcus aureus ATCC 25923 upon s.c. administration; format: functional; conditions: sc
Mus musculus [9] = assay: Efficacy against mice infected with MRSA-33 upon s.c. administration; format: functional; conditions: sc
Mus musculus [10] = assay: Efficacy against mice infected with MRSA-32 upon s.c. administration; format: functional; conditions: MRSA-32, sc
Staphylococcus aureus [11] = assay: Minimum inhibitory concentration against methicillin susceptible Staphylococcus aureus in the absence of esterase action; format: functional
Mus musculus [12] = assay: Protection of mice infected with MRSA-32 cell suspension after s.c. administration of compound; format: functional; conditions: MRSA-32, sc
Streptococcus sanguinis = assay: Minimum inhibitory concentration against Streptococcus sanguis ATCC 10556; format: functional
Staphylococcus aureus [13] = assay: Frequency of resistance emergence for methicillin resistant Staphylococcus aureus-32; format: functional
[14] = tested on: Staphylococcus haemolyticus; assay: Minimum inhibitory concentration against Staphylococcus haemolyticus ATCC 29970; format: functional
Streptococcus agalactiae = assay: Minimum inhibitory concentration against Streptococcus agalactiae ATCC 13813; format: functional
Streptococcus pyogenes = assay: Minimum inhibitory concentration against Streptococcus pyogenes ATCC 19615; format: functional
Staphylococcus aureus [15] = assay: microbe, parasite or virus in culture
Description: Minimum inhibitory concentration against methicillin-resistant Staphylococcus aureus-32

Staphylococcus aureus [16] = assay: microbe, parasite or virus in culture; remark: listed apart in the source
Description: Minimum inhibitory concentration against methicillin-resistant Staphylococcus aureus-5023

Staphylococcus aureus [17] = assay: Mutant prevention concentration aganist methicillin resistant Staphylococcus aureus-33 done for 48 hr at 37 degree C with compound; format: functional
Staphylococcus aureus [18] = assay: Frequency of resistance emergence for methicillin resistant Staphylococcus aureus-33; format: functional
Staphylococcus aureus [19] = assay: Mutant prevention concentration aganist methicillin resistant Staphylococcus aureus-5023 done for 48 hr at 37 degree C with compound; format: functional
Staphylococcus aureus [20] = assay: microbe, parasite or virus in culture; remark: listed apart in the source
Description: Minimum inhibitory concentration against methicillin-resistant Staphylococcus aureus-33

Enterococcus faecalis = assay: Minimum inhibitory concentration against Enterococcus faecalis ATCC 29212; format: functional
[21] = tested on: Staphylococcus saprophyticus; assay: Minimum inhibitory concentration against Staphylococcus saprophyticus ATCC 15305; format: functional
Staphylococcus aureus [22] = assay: Frequency of resistance emergence for methicillin resistant Staphylococcus aureus-5023; format: functional
Phocaeicola vulgatus = assay: Minimum inhibitory concentration against Bacteroides vulgatus ATCC 29327; format: functional
Klebsiella pneumoniae = assay: Minimum inhibitory concentration against Klebsiella pneumoniae ATCC 10031; format: functional
Staphylococcus aureus [23] = assay: Mutant prevention concentration against methicillin resistant Staphylococcus aureus-32 done for 48 h at 37 degree C with compound; format: functional
Staphylococcus aureus [24] = assay: microbe, parasite or virus in culture; remark: listed apart in the source
Description: Minimum inhibitory concentration against vancomycin intermediate Staphylococcus aureus MU 50

Pseudomonas aeruginosa = assay: microbe, parasite or virus in culture; conditions: ATCC 27853
Description: Minimum inhibitory concentration against Pseudomonas aeruginosa ATCC 27853

Staphylococcus aureus [25] = assay: Minimum inhibitory concentration against Staphylococcus aureus ATCC 25923; format: functional
Escherichia coli = assay: microbe, parasite or virus in culture; conditions: ATCC 25922
Description: Minimum inhibitory concentration against Escherichia coli ATCC 25922

Staphylococcus aureus [26] = assay: Minimum inhibitory concentration against Staphylococcus aureus gyrA/grlA double mutant; format: functional
Streptococcus pneumoniae [27] = assay: microbe, parasite or virus in culture; conditions: ATCC 6303
Description: Minimum inhibitory concentration against Streptococcus pneumoniae ATCC 6303

[28] = Half life in phase I clinical studies at a i.v. dose of 600 mg; format: ADME, organism-based; conditions: human, in vivo, iv
Staphylococcus aureus [29] = assay: Minimum inhibitory concentration against Staphylococcus aureus grlA mutant; format: functional
DNA gyrase = DNA gyrase (Staphylococcus aureus, UniProt P0A0K8+P20831)
DNA gyrase, sequence (P0A0K8 whole entry): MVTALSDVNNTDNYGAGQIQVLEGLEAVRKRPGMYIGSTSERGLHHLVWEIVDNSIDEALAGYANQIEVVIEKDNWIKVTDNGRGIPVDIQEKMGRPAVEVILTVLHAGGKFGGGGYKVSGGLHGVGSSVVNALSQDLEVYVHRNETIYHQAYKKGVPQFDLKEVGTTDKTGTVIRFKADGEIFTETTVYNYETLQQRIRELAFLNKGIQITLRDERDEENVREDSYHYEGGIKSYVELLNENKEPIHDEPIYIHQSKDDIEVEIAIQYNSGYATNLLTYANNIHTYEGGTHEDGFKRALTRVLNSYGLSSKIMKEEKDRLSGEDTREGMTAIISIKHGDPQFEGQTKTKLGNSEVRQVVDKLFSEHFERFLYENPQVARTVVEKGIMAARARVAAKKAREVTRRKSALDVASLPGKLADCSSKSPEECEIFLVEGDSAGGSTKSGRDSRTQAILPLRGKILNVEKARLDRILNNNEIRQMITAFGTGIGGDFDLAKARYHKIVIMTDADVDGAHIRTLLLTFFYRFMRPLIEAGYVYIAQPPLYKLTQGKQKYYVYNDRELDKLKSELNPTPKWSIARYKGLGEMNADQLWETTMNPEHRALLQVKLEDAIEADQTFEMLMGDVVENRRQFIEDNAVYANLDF
DNA gyrase, sequence (P20831 whole entry): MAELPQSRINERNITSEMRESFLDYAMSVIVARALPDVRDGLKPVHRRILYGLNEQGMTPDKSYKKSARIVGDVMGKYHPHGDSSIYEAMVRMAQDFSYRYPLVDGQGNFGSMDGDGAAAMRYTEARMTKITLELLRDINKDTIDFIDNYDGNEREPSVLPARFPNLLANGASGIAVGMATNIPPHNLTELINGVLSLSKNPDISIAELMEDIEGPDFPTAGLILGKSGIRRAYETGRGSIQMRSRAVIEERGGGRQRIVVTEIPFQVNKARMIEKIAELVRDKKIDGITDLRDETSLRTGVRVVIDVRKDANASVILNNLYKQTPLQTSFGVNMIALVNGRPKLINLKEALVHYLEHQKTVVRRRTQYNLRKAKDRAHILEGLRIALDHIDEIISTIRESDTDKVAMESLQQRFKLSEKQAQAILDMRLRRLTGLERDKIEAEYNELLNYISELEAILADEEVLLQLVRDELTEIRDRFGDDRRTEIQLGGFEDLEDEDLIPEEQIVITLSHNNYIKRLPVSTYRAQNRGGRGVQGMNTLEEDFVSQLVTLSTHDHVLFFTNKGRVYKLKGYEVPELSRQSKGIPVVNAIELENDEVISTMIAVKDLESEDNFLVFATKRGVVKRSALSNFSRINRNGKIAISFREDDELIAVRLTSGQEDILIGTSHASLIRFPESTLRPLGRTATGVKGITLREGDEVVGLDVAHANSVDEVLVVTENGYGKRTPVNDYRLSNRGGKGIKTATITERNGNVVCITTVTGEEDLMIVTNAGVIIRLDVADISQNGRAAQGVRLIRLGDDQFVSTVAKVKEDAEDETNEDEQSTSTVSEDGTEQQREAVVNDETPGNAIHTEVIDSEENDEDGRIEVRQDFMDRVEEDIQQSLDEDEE
Description: Inhibition of supercoiling activity of DNA gyrase from Staphylococcus aureus ISP 794; Range = 2.5-5 ug/mL

Staphylococcus aureus [30] = assay: Minimum inhibitory concentration against Staphylococcus aureus gyrA mutant; format: functional
[31] = Peak plasma concentration in phase I clinical studies at a i.v. dose of 600 mg; format: ADME, organism-based; set-up: dose 600 mg, route intravenous; conditions: human, iv
Streptococcus pneumoniae [32] = assay: microbe, parasite or virus in culture; conditions: ATCC 49619
Description: Minimum inhibitory concentration against Streptococcus pneumoniae ATCC 49619

[33] = target: DNA topoisomerase 4 subunit A (Staphylococcus aureus, UniProt P0C1U9)
DNA topoisomerase 4 subunit A, sequence (P0C1U9 whole entry): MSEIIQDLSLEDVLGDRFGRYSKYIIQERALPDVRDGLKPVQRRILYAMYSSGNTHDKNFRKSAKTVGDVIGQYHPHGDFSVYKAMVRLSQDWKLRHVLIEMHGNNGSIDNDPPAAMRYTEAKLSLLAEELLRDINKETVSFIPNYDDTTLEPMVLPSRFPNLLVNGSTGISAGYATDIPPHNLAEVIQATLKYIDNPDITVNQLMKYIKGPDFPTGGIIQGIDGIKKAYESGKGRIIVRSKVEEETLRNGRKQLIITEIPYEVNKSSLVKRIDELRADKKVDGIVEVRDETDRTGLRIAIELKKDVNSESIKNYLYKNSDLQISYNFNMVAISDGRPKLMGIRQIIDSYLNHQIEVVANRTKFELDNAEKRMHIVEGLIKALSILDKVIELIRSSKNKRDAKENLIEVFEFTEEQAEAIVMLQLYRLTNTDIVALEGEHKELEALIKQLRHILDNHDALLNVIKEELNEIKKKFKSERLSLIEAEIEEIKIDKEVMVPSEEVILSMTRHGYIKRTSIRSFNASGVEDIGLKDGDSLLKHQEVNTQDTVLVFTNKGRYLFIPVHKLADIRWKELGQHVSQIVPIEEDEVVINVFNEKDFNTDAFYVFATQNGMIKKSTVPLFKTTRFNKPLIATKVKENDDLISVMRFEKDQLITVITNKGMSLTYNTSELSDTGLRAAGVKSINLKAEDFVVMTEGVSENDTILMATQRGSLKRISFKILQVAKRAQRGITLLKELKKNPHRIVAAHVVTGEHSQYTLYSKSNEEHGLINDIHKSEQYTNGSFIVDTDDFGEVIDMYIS
Description: Inhibition of supercoiling activity of topoisomerase IV from Staphylococcus aureus ISP 794

Staphylococcus aureus [34] = assay: Minimum inhibitory concentration against Staphylococcus aureus ISP 794 (wild type); format: functional

DNA gyrase (Staphylococcus aureus), sequence (P0A0K8 2-644 limits assumed): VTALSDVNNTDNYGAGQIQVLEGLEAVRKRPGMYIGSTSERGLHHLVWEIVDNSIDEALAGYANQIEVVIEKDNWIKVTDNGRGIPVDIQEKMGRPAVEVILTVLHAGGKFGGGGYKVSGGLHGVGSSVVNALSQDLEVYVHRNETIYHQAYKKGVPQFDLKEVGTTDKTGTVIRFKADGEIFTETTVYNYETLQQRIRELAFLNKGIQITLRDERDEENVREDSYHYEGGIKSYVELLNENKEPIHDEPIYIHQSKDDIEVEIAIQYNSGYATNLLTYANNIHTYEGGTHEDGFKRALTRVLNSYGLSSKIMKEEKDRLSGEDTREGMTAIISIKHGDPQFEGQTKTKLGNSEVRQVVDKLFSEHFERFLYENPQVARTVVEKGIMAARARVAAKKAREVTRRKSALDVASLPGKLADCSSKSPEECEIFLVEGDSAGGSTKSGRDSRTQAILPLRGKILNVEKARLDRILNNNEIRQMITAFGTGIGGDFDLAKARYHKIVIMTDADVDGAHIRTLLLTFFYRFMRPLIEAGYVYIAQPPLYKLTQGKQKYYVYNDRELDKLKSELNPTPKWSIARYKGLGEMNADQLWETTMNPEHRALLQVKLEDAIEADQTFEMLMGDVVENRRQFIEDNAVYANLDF
DNA gyrase (Staphylococcus aureus), sequence (P20831 whole entry partner): as the sequence (P20831 whole entry) above
DNA topoisomerase 4 subunit A (Staphylococcus aureus), sequence (P0C1U9 whole entry): as the sequence (P0C1U9 whole entry) above

SMILES	MIC (Staphylococcus aureus [3]) [µg/mL]	ED50 (Mus musculus [4]) [mg/kg]	NOEL (Rattus norvegicus) [mg/kg]	MIC (Staphylococcus aureus [5]) [µg/mL]	MIC (Staphylococcus aureus [6]) [µg/mL]	MIC (Staphylococcus aureus [7]) [µg/mL]	ED50 (Mus musculus [8]) [mg/kg]	ED50 (Mus musculus [9]) [mg/kg]	ED50 (Mus musculus [10]) [mg/kg]	MIC (Streptococcus sanguinis) [µg/mL]	FRE (Staphylococcus aureus [13])	MIC [14] [µg/mL]	MIC (Streptococcus agalactiae) [µg/mL]	MIC (Streptococcus pyogenes) [µg/mL]	MIC (Staphylococcus aureus [15]) [µg/mL]	MIC (Staphylococcus aureus [16]) [µg/mL]	MPC (Staphylococcus aureus [17]) [µg/mL]	FRE (Staphylococcus aureus [18])	MPC (Staphylococcus aureus [19]) [µg/mL]	MIC (Staphylococcus aureus [20]) [µg/mL]	further results
C[C@H]1CCc2c(N3CCC(O)CC3)c(F)cc3c(=O)c(C(=O)O)cn1c23																					CC50 [1]: 2.5 µg/mL (≈ 6.94 µM); CC50 [2]: 5 µg/mL (≈ 13.9 µM)
C[C@H]1CCc2c(N3CCC(O)CC3)c(F)cc3c(=O)c(C(=O)[O-])cn1c23.[Na+]	0.03	60	<250																		
CN[C@H](CC(C)C)C(=O)N[C@H]1C(=O)N[C@@H](CC(N)=O)C(=O)N[C@H]2C(=O)N[C@H]3C(=O)N[C@H](C(=O)N[C@H](C(=O)O)c4cc(O)cc(O)c4-c4cc3ccc4O)[C@H](O)c3ccc(c(Cl)c3)Oc3cc2cc(c3O[C@@H]2O[C@H](CO)[C@@H](O)[C@H](O)[C@H]2O[C@H]2C[C@](C)(N)[C@H](O)[C@H](C)O2)Oc2ccc(cc2Cl)[C@H]1O [VANCOMYCIN]				8 (≈ 5.52 µM)	16 (≈ 11 µM)	32 (≈ 22.1 µM)	6.11	> 3.7	> 2.18												
C[C@H]1CCc2c(N3CCC(O)CC3)c(F)cc3c(=O)c(C(=O)O)cn1c23 [LEVONADIFLOXACIN]		62.3																			MIC (Staphylococcus aureus [11]): 0.03 µg/mL (≈ 0.0832 µM); ED50 (Mus musculus [12]): 24.8 mg/kg
COc1c(N2C[C@@H]3CCCN[C@@H]3C2)c(F)cc2c(=O)c(C(=O)O)cn(C3CC3)c12 [MOXIFLOXACIN]				4 (≈ 9.96 µM)			0.6	66.1	30	0.5 (≈ 1.25 µM)	4.51e-05	0.06 (≈ 0.149 µM)	0.12 (≈ 0.299 µM)	0.25 (≈ 0.623 µM)	2 (≈ 4.98 µM)	2 (≈ 4.98 µM)	10	2.1e-06	10	2 (≈ 4.98 µM)	MIC (Enterococcus faecalis): 0.25 µg/mL (≈ 0.623 µM); MIC [21]: 0.25 µg/mL (≈ 0.623 µM); FRE (Staphylococcus aureus [22]): 3.1e-05; MIC (Phocaeicola vulgatus): 0.5 µg/mL (≈ 1.25 µM); MIC (Klebsiella pneumoniae): 0.008 µg/mL (≈ 0.0199 µM); MPC (Staphylococcus aureus [23]): 10 µg/mL; MIC (Staphylococcus aureus [24]): 4 µg/mL (≈ 9.96 µM); MIC (Pseudomonas aeruginosa): 4 µg/mL (≈ 9.96 µM); MIC (Staphylococcus aureus [25]): 0.06 µg/mL (≈ 0.149 µM)
C[C@H]1CCc2c(N3CCC(O)CC3)c(F)cc3c(=O)c(C(=O)O)cn1c23.N=C(N)NCCC[C@H](N)C(=O)O.O.O.O.O	0.03	93.6	250	2	1	0.5	0.59	38.3	27.8	0.25	<6.51e-09	0.015	0.12	0.06	1	1	2	<3.51e-09	2	1	MIC (Escherichia coli): 0.12 µg/mL; MIC (Staphylococcus aureus [26]): 1 µg/mL; MIC (Streptococcus pneumoniae [27]): 0.12 µg/mL; half-life [28]: 6 h; MIC (Staphylococcus aureus [29]): 0.032 µg/mL; IC50 (DNA gyrase): 8.24 µM; MIC (Staphylococcus aureus [30]): 0.032 µg/mL; Cmax [31]: 4000 ng/mL; MIC (Streptococcus pneumoniae [32]): 0.12 µg/mL; IC50 [33]: 8.24 µM; MIC (Staphylococcus aureus [34]): 0.016 µg/mL; MIC (Enterococcus faecalis): 0.25 µg/mL; MIC [21]: 0.06 µg/mL; FRE (Staphylococcus aureus [22]): <4.1e-07; MIC (Phocaeicola vulgatus): 0.5 µg/mL; MIC (Klebsiella pneumoniae): 0.008 µg/mL; MPC (Staphylococcus aureus [23]): 2 µg/mL; MIC (Pseudomonas aeruginosa): 4 µg/mL; MIC (Staphylococcus aureus [25]): 0.03 µg/mL
